#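 GI50: concentration for 50% inhibition of growth. The concentration for full growth arrest is given as TGI.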
# How the values were obtained:
# Assay in all cases: DTP human tumour cell line panel, 384-well format
# MDA-MB-468 breast = test system: MDA-MB-468 breast
# BT-549 breast = test system: BT-549 breast
# SNB-19 CNS = test system: SNB-19 CNS
# PC-3 prostate = test system: PC-3 prostate
# SF-295 CNS = test system: SF-295 CNS
# NCI-H460 NSCLC = test system: NCI-H460 NSCLC
# SK-MEL-5 melanoma = test system: SK-MEL-5 melanoma
# CCRF-CEM leukemia = test system: CCRF-CEM leukemia
# DU-145 prostate = test system: DU-145 prostate
# K-562 leukemia = test system: K-562 leukemia
# MDA-MB-231 breast = test system: MDA-MB-231 breast
# MALME-3M melanoma = test system: MALME-3M melanoma
# A498 renal = test system: A498 renal
# SF-268 CNS = test system: SF-268 CNS
# NCI-H226 lung = test system: NCI-H226 lung
# ACHN renal = test system: ACHN renal
# MCF7 breast = test system: MCF7 breast
# HCT-15 colon = test system: HCT-15 colon
# OVCAR-3 ovarian = test system: OVCAR-3 ovarian
# COLO 205 colon = test system: COLO 205 colon
# T-47D breast = test system: T-47D breast
# M14 melanoma = test system: M14 melanoma
# EKVX NSCLC = test system: EKVX NSCLC
# HOP-62 NSCLC = test system: HOP-62 NSCLC
# TK-10 renal = test system: TK-10 renal
# HT29 colon = test system: HT29 colon
# OVCAR-8 ovarian = test system: OVCAR-8 ovarian
# SK-MEL-28 melanoma = test system: SK-MEL-28 melanoma
# UACC-62 melanoma = test system: UACC-62 melanoma
# SN12C renal = test system: SN12C renal
# SNB-75 CNS = test system: SNB-75 CNS
# OVCAR-4 ovarian = test system: OVCAR-4 ovarian
# IGROV1 ovarian = test system: IGROV1 ovarian
# HS 578T breast = test system: HS 578T breast
# HCC-2998 colon = test system: HCC-2998 colon
# KM12 colon = test system: KM12 colon
# CAKI-1 renal = test system: CAKI-1 renal
# NCI-H322M lung = test system: NCI-H322M lung
# MDA-MB-435 melanoma = test system: MDA-MB-435 melanoma
# HL-60(TB) leukemia = test system: HL-60(TB) leukemia
# MOLT-4 leukemia = test system: MOLT-4 leukemia
# UACC-257 melanoma = test system: UACC-257 melanoma
# 786-0 renal = test system: 786-0 renal
# NCI-H522 lung = test system: NCI-H522 lung
# LOX IMVI melanoma = test system: LOX IMVI melanoma
# U251 glioblastoma = test system: U251 glioblastoma
# A549 NSCLC = test system: A549 NSCLC
# SW-620 colon = test system: SW-620 colon
# HCT-116 colon = test system: HCT-116 colon
# HOP-92 NSCLC = test system: HOP-92 NSCLC
# RPMI-8226 leukemia = test system: RPMI-8226 leukemia
# UO-31 renal = test system: UO-31 renal
# SK-OV-3 ovarian = test system: SK-OV-3 ovarian
# SF-539 CNS = test system: SF-539 CNS
# RXF 393 renal = test system: RXF 393 renal
# NCI/ADR-RES ovarian = test system: NCI/ADR-RES ovarian
# NCI-H23 lung = test system: NCI-H23 lung
compound,measurement,setting,value
Cn1ncc(C#N)c1-c1ccc2c(c1)CN([C@H](CN)Cc1cccc(F)c1)C2=O,GI50,MDA-MB-468 breast,0.0967 µM
same,TGI,MDA-MB-468 breast,3.28 µM
same,GI50,BT-549 breast,0.943 µM
same,TGI,BT-549 breast,17.9 µM
same,GI50,SNB-19 CNS,13.7 µM
same,TGI,SNB-19 CNS,67.3 µM
same,GI50,PC-3 prostate,0.436 µM
same,TGI,PC-3 prostate,16.7 µM
same,GI50,SF-295 CNS,0.668 µM
same,TGI,SF-295 CNS,16.5 µM
same,GI50,NCI-H460 NSCLC,0.582 µM
same,TGI,NCI-H460 NSCLC,33.3 µM
same,GI50,SK-MEL-5 melanoma,6.5 µM
same,TGI,SK-MEL-5 melanoma,20 µM
same,GI50,CCRF-CEM leukemia,0.675 µM
same,TGI,CCRF-CEM leukemia,14.6 µM
same,GI50,DU-145 prostate,16.5 µM
same,TGI,DU-145 prostate,44.9 µM
same,GI50,K-562 leukemia,15.3 µM
same,TGI,K-562 leukemia,43.7 µM
same,GI50,MDA-MB-231 breast,21.8 µM
same,TGI,MDA-MB-231 breast,74.7 µM
same,GI50,MALME-3M melanoma,1.76 µM
same,TGI,MALME-3M melanoma,14.8 µM
same,GI50,A498 renal,0.269 µM
same,TGI,A498 renal,16.7 µM
same,GI50,SF-268 CNS,19.2 µM
same,TGI,SF-268 CNS,58.5 µM
same,GI50,NCI-H226 lung,14.4 µM
same,TGI,NCI-H226 lung,39.1 µM
same,GI50,ACHN renal,17.3 µM
same,TGI,ACHN renal,93.9 µM
same,GI50,MCF7 breast,0.498 µM
same,TGI,MCF7 breast,16.3 µM
same,GI50,HCT-15 colon,16.3 µM
same,TGI,HCT-15 colon,> 100 µM
same,GI50,OVCAR-3 ovarian,11.8 µM
same,TGI,OVCAR-3 ovarian,32.4 µM
same,GI50,COLO 205 colon,4.91 µM
same,TGI,COLO 205 colon,25.4 µM
same,GI50,T-47D breast,0.0502 µM
same,TGI,T-47D breast,19.5 µM
same,GI50,M14 melanoma,11.2 µM
same,TGI,M14 melanoma,26.8 µM
same,GI50,EKVX NSCLC,11.1 µM
same,TGI,EKVX NSCLC,40.3 µM
same,GI50,HOP-62 NSCLC,23 µM
same,TGI,HOP-62 NSCLC,71.1 µM
same,GI50,TK-10 renal,10.1 µM
same,TGI,TK-10 renal,42.8 µM
same,GI50,HT29 colon,4.87 µM
same,TGI,HT29 colon,94.5 µM
same,GI50,OVCAR-8 ovarian,24.3 µM
same,TGI,OVCAR-8 ovarian,> 100 µM
same,GI50,SK-MEL-28 melanoma,3.34 µM
same,TGI,SK-MEL-28 melanoma,33.4 µM
same,GI50,UACC-62 melanoma,4.27 µM
same,TGI,UACC-62 melanoma,19.8 µM
same,GI50,SN12C renal,17.6 µM
same,TGI,SN12C renal,65.9 µM
same,GI50,SNB-75 CNS,0.299 µM
same,TGI,SNB-75 CNS,14 µM
same,GI50,OVCAR-4 ovarian,35.7 µM
same,TGI,OVCAR-4 ovarian,> 100 µM
same,GI50,IGROV1 ovarian,0.0552 µM
same,TGI,IGROV1 ovarian,10.4 µM
same,GI50,HS 578T breast,1.57 µM
same,TGI,HS 578T breast,19.8 µM
same,GI50,HCC-2998 colon,11 µM
same,TGI,HCC-2998 colon,47.2 µM
same,GI50,KM12 colon,0.841 µM
same,TGI,KM12 colon,20.4 µM
same,GI50,CAKI-1 renal,5.91 µM
same,TGI,CAKI-1 renal,40.8 µM
same,GI50,NCI-H322M lung,16.9 µM
same,TGI,NCI-H322M lung,70.2 µM
same,GI50,MDA-MB-435 melanoma,15.8 µM
same,TGI,MDA-MB-435 melanoma,43.3 µM
same,GI50,HL-60(TB) leukemia,15.9 µM
same,TGI,HL-60(TB) leukemia,29.5 µM
same,GI50,MOLT-4 leukemia,0.129 µM
same,TGI,MOLT-4 leukemia,2.38 µM
same,GI50,UACC-257 melanoma,12.5 µM
same,TGI,UACC-257 melanoma,31.1 µM
same,GI50,786-0 renal,0.324 µM
same,TGI,786-0 renal,21.2 µM
same,GI50,NCI-H522 lung,13.3 µM
same,TGI,NCI-H522 lung,27 µM
same,GI50,LOX IMVI melanoma,27.6 µM
same,TGI,LOX IMVI melanoma,> 100 µM
same,GI50,U251 glioblastoma,11.1 µM
same,TGI,U251 glioblastoma,68.7 µM
same,GI50,A549 NSCLC,12.2 µM
same,TGI,A549 NSCLC,75.1 µM
same,GI50,SW-620 colon,27.5 µM
same,TGI,SW-620 colon,82 µM
same,GI50,HCT-116 colon,10.8 µM
same,TGI,HCT-116 colon,23.2 µM
same,GI50,HOP-92 NSCLC,6.45 µM
same,TGI,HOP-92 NSCLC,31.4 µM
same,GI50,RPMI-8226 leukemia,12.9 µM
same,TGI,RPMI-8226 leukemia,26.1 µM
same,GI50,UO-31 renal,13.4 µM
same,TGI,UO-31 renal,46.7 µM
same,GI50,SK-OV-3 ovarian,0.534 µM
same,TGI,SK-OV-3 ovarian,23.2 µM
same,GI50,SF-539 CNS,0.394 µM
same,TGI,SF-539 CNS,33.4 µM
same,GI50,RXF 393 renal,0.433 µM
same,TGI,RXF 393 renal,11.9 µM
same,GI50,NCI/ADR-RES ovarian,> 100 µM
same,TGI,NCI/ADR-RES ovarian,> 100 µM
same,GI50,NCI-H23 lung,14.6 µM
same,TGI,NCI-H23 lung,34.8 µM

# Source: PubChem BioAssay (NCI)
